Measured values as given in US20220133894A1, “BISPHOSPHONATE-LINKED COMPOUNDS” (OREGON HEALTH & SCIENCE UNIVERSITY, priority 2019, published 2022).

Columns and labels:
PC3-luc cells = assay: PCa intracardiac injection model, bone destruction by CT and survival; assay type: in vivo, mice
RAW 267.4 cells [1] = assay: Osteo Assay pit formation, osteoclast-mediated bone degradation; assay type: cell-based, mouse
[2] = test system: prostate specific antigen (PSA); assay: PSA expression by qRT/PCR in LNCaP cells; assay type: cell-based, human; details: LNCaP cells in androgen depleted media
Description: (§1) Cells were cultured in media depleted of androgen and after a washout of 72 hrs were treated with the synthetic androgen R1881, KBU2046, enzalutamide and/or vehicle (control), and resultant effects upon induction of the androgen-responsive gene, prostate specific antigen (PSA) were measured (FIG. 3A).
(§2) LNCaP or VCaP cells cultured in hormone free media were treated with R1881 (R), KBU2046 (46) and/or enzalutamide (E). (FIGS. 3A and 3B) Effects on AR-responsive gene expression. PSA expression was measured by qRT/PCR, normalized to GAPDH and expressed as a percent of control cells (N=3 replicates); * denotes P<0.05 for groups separated by bar. (FIGS. 3C and 3D) Effects on cell growth. Three day growth assays were performed. Data are the number of viable cells, expressed as % of control (N=3 replicates); * P<0.05 compared to control. (E) Effects on AR activation. Western blots of nuclear (N) and cytoplasmic (C) preparations of cell extracts were probed for AR, laminin 1 or α-tubulin. (FIGS. 3F and 3G) Effects on tumor outgrowth after androgen deprivation therapy. LNCaP/AR-luc cells were implanted subcutaneously (N=6 mice/cohort) or orthotopic (N=15 mice/cohort were implanted; N=5 yielded tumors) into castrate mice, treatment with KBU2046 began as noted, and weekly IVIS imaging performed. Data are tumor size, expressed as luminescence intensity. All data are expressed as mean±SEM.
(§3) RNA was isolated and qRT/PCR performed as previously described by us (Ding et al., J Biomol Tech 18, 321-330 (2007)). Resultant data were analyzed using the 2^−ΔΔt method (Livak et al., Methods 25, 402-408 (2001)), normalized to GAPDH, for the following primer/probe sets (ABI) PSA (Hs02576345_m1) and GAPDH (Hs99999905_m1). Assays were performed in triplicate, and were repeated.

[3] = test system: prostate specific antigen (PSA); assay: PSA expression by qRT/PCR in VCaP cells; assay type: cell-based, human; details: VCaP cells in androgen depleted media
Description: as §1, §2, §3

RAW 267.4 cells [4] = assay: Osteoclast morphology and maturation (actin/DAPI immunofluorescence, TRAP staining); assay type: cell-based, mouse; details: Raf1-specific inhibitors; TRAP staining, multinucleated cells, resorptive cavity formation
From the text: Treatment of RAW 267.4 cells with KBU2046 induces several structural and functional changes. It reduces RANKL-mediated formation of multinucleated cells, and those that do form have lower numbers of nuclei (see 40× panels, FIG. 4B). The characteristic prominent actin ring (white arrow) surrounding the resorptive cavity (yellow arrow) is readily apparent in control cells treated with RANKL ligand, but is lacking in KBU2046-treated cells (100×, panels). Consistent with it inhibiting maturation of RAW 267.4 cells, TRAP staining is decreased in KBU2046-treated cells (FIG. 4C).
FIG. 4 represents the KBU2046 inhibition of osteoclast function. FIG. 4A compares effects on Raf1 activation. RAW 267.4 cells were treated with RANKL for 4 days, treated with 10 μM KBU2046 for the indicated time periods, and Western blot for the denoted proteins performed. (B) Effects on cell morphology. RAW 267.4 cells were treated with RANKL and with KBU2046 for 4 days, or not, and denoted, and stained for actin (green) and DAPI (blue); white arrow denotes an actin ring, yellow arrow a resorptive cavity. Representative immunofluorescent images are depicted. (C) Tartrate resistant acid phosphatase (TRAP) expression. Cells were treated as in B, stained for TRAP (denoted by presence of red), and representative images from light microscopy depicted. (D) Bone degradation. RAW 267.4 cells were plated onto Osteo Assay plates, treated with RANKL for 6 days and with KBU2046 (or vehicle for controls) as indicated and bone surface area quantified. Data are the mean±SEM (N=3 replicates) of bone surface area, expressed as the percentage of control cells; * denotes P<0.05 compared to control.
Raw 264.7 cells were grown in differentiation medium (described below), with or without KBU2046, for 4 days on a Chamber Slide (Nunc Lab-Tek). Chambers were washed once with PBS, followed by 10-minute fixation in cold 10% neutral-buffered formalin (VWR) and a post-fixation wash with PBS. […] The cells were then incubated for 2 hours at 4° C. in Dylight Phallodin (Cell Signaling technology, #12935) antibody diluted 1:40 in 1×PBS with 1% BSA and 0.3% Triton X-100. Subsequently, the slide was washed once with PBS, a coverslip mounted with ProLong Gold Antifade Reagent with DAPI (Cell Signaling Technology, #8961), and imaged on a Confocal Microscope (Nikon/Yokogawa Spinning Disc).

[5] = experimental compounds with RANKL, day 6, FIGS. 6A-6L
[6] = Raf1-specific inhibitors, Supplementary Fig. S5

O=C(CCOCCNC(=O)COc1ccc2c(c1)OCC(c1ccc(F)cc1)C2=O)NCCCC(O)(P(=O)(O)O)P(=O)(O)O (centres unmarked) [Compound E (n=1), (4-(3-(2-(2-((3-(4-fluorophenyl)-4-oxochroman-7-yl)oxy)acetamido)ethoxy)propanamido)-1-hydroxybutane-1,1-diyl)bis(phosphonic acid)] was tested, and the survival (PC3-luc cells; 10, 100 or 1000 ug/kg weekly intraperitoneal, from 1 week before IC injection) was “prolongs”, the “bone destruction in the jaw” value (PC3-luc cells; 10, 100 or 1000 μg/kg weekly intraperitoneal, from 1 week before IC injection, CT) was “inhibits” and the osteoclast-mediated bone degradation (RAW 267.4 cells [1]; [5]) was “inhibiting”.

For O=C(CCOCCOCCNC(=O)COc1ccc2c(c1)OCC(c1ccc(F)cc1)C2=O)NCCCC(O)(P(=O)(O)O)P(=O)(O)O (centres unmarked) [Compound E (n=2), (1-((3-(4-fluorophenyl)-4-oxochroman-7-yl)oxy)-17-hydroxy-2,12-dioxo-6,9-dioxa-3,13-diazaheptadecane-17,17-diyl)bis(phosphonic acid)], the osteoclast-mediated bone degradation (RAW 267.4 cells [1]; [5]) was “inhibiting”.

For O=C(CCOCCOCCOCCCNC(=O)COc1ccc2c(c1)OCC(c1ccc(F)cc1)C2=O)NCCCC(O)(P(=O)(O)O)P(=O)(O)O (centres unmarked) [Compound E (n=3), (1-((3-(4-fluorophenyl)-4-oxochroman-7-yl)oxy)-21-hydroxy-2,16-dioxo-7,10,13-trioxa-3,17-diazahenicosane-21,21-diyl)bis(phosphonic acid)], the osteoclast-mediated bone degradation (RAW 267.4 cells [1]; [5]) was “inhibiting”.

O=C(CCOCCNC(=O)COc1ccc2c(c1)OCC(c1ccc(F)cc1)C2=O)NCC(O)C[n+]1ccn(CC(O)(P(=O)(O)O)P(=O)(O)O)c1 (centres unmarked) [Compound G, 3-(3-(3-(2-(2-((3-(4-fluorophenyl)-4-oxochroman-7-yl)oxy)acetamido)ethoxy)propanamido)-2-hydroxypropyl)-1-(2-hydroxy-2,2-diphosphonoethyl)-1H-imidazol-3-ium] was tested, and the osteoclast-mediated bone degradation (RAW 267.4 cells [1]; [5]) was “inhibiting”.

For O=C(CCOCCOCCOCCNC(=O)COc1ccc2c(c1)OCC(c1ccc(F)cc1)C2=O)NCC(O)C[n+]1ccn(CC(O)([PH](=O)O)P(=O)(O)O)c1 (centres unmarked) [Compound H, (2-(3-(1-((3-(4-fluorophenyl)-4-oxochroman-7-yl)oxy)-15-(I1-oxidaneyl)-2,12-dioxo-6,9-dioxa-3,13-diazahexadecan-16-yl)-1H-3I4-imidazol-1-yl)-1-hydroxyethane-1,1-diyl)bis(hydrogen phosphonate)], the osteoclast-mediated bone degradation (RAW 267.4 cells [1]; [5]) was “inhibiting”.

For O=C(CCOCCOCCOCCOCCNC(=O)COc1ccc2c(c1)OCC(c1ccc(F)cc1)C2=O)NCC(O)C[n+]1ccn(CC(O)([PH](=O)O)P(=O)(O)O)c1 (centres unmarked) [Compound I, (2-(3-(1-((3-(4-fluorophenyl)-4-oxochroman-7-yl)oxy)-18-(I1-oxidaneyl)-2,15-dioxo-6,9,12-trioxa-3,16-diazanonadecan-19-yl)-1H-3I4-imidazol-1-yl)-1-hydroxyethane-1,1-diyl)bis(hydrogen phosphonate)], the osteoclast-mediated bone degradation (RAW 267.4 cells [1]; [5]) was “inhibiting”.

For C[C@]1(O)CC[C@H]2[C@@H]3CCC4=CC(=O)CCC4=C3C=C[C@@]21C [Compound R1881], the PSA expression [2] was “significantly increased” and the PSA expression [3] was “significantly increased”.

With O=C1Nc2ccc(I)cc2/C1=C/c1cc(Br)c(O)c(Br)c1 [GW5074] the osteoclast-mediated bone degradation (RAW 267.4 cells [1]; [6]) was “inhibit” and the RANKL-induced osteoclast maturation (RAW 267.4 cells [4]) was “inhibit”.

With Cc1ccc(C(=O)Nc2cccc(C(F)(F)F)c2)cc1Nc1nc(-c2cccnc2)nc2c1cnn2C [NVP-BHG712] the osteoclast-mediated bone degradation (RAW 267.4 cells [1]; [6]) was “inhibit” and the RANKL-induced osteoclast maturation (RAW 267.4 cells [4]) was “inhibit”.

With O=P(O)(O)C(O)(Cn1ccnc1)P(=O)(O)O [ZA, zoledronic acid] the “improvement of femur bone density compared to control” value (PC3-luc cells; oral 150 mg KBU2046/kg daily, intraperitoneal ZA 100 μg/kg weekly, CT) was 56±2.7%.

Cc1ccc(NC(=O)c2cccc(N(C)C)c2)cc1NC(=O)c1ccc(O)cc1 [ZM336372] was tested, and the osteoclast-mediated bone degradation (RAW 267.4 cells [1]; [6]) was “inhibit” and the RANKL-induced osteoclast maturation (RAW 267.4 cells [4]) was “inhibit”.
